This is an account of results in ChEMBL document CHEMBL1177696, “Heat shock protein 70 (hsp70) as an emerging drug target” (J Med Chem, 2010).

What is called IC50 is the concentration that gives 50% inhibition. Low readings indicate greater potency in that assay, high ones weaker potency in that assay. Broadly, the MIC is the lowest concentration that inhibits growth of the organism. A word on the Kd: it is the concentration at which binding is half-saturated. Read a high Kd as weaker binding. Broadly, the EC50 is the concentration that produces a half-maximal response. Broadly, the inhibition is the relative decrease from the control value, in per cent. Read a low inhibition as a response near the control.

Data set [1] in a line: Antiproliferative activity against human colon cancer cells. To be noted: Cancer cell lines. Format: functional, cell-based.
Data set [2] is described as follows: Antiproliferative activity against human breast cancer cells. Format: functional, cell-based. Conditions: Cancer cell lines.
Data set [3] is described as follows: Antiproliferative activity against human bladder cancer cells. Format: functional, cell-based. To be noted: Cancer cell lines.
Data set [4] deals with Yersinia pseudotuberculosis. Briefly: Antibacterial activity against Yersinia pseudotuberculosis. Format: functional.
Data set [5] in a line: Binding affinity to Escherichia coli DNAK substrate binding domain by isothermal titration assay.
For data set [6], the system named is Escherichia coli. As to the kind of experiment: Antibacterial activity against Escherichia coli. Format: functional.
Data set [7] concerns Escherichia coli. Briefly: Ratio of ciprofloxacin MIC to compound MIC for Escherichia coli. Format: functional.
The nature of data set [8]: Inhibition of APIase activity of Escherichia coli MC4100 DNAK.
Data set [9] can be described thus: Cytotoxicity against human erythrocytes assessed as hemolysis after 30 mins by spectrometric analysis. Format: cell-based. To be noted: Erythrocyte, 0.5 h.
Data set [10] has as its system Escherichia coli. As to the kind of experiment: Antibacterial activity against Escherichia coli MC4100. Format: functional.
Data set [11] addresses Heat shock cognate 71 kDa protein (Homo sapiens) (UniProt P11142). As to the kind of experiment: Binding affinity to HSC70 EEVD domain by mass spectroscopy.
In another data set the test system is Saccharomyces cerevisiae. Briefly: Induction of ATPase activity of yeast cytosolic HSC70.
The nature of data set [12]: Terminal half life in renal transplant patient. Format: ADME, organism-based. To be noted: human, in vivo; read-out: beta t1/2 (converted).
The nature of data set [13]: Alpha half life in renal transplant patient. Format: ADME, organism-based. To be noted: human, in vivo; read-out: alphat1/2.
Another data set deals with L1210. As to the kind of experiment: Antitumor activity against mouse L1210 cells xenografted in CDF1 mouse assessed as log reduction in tumor burden. Format: functional.
A short description of data set [14]: Binding affinity to HSP90 EEVD domain by mass spectroscopy.
Data set [15] concerns Escherichia coli. As to the kind of experiment: Inhibition of Escherichia coli DNAK at 150 uM.
Data set [16] in a line: Inhibition of Escherichia coli DNAK by luciferase-refolding assay.

Values after ≈ are worked out from the molar mass of the structure shown.

Chain of Heat shock cognate 71 kDa protein (Homo sapiens) (P11142 2-646 limits assumed): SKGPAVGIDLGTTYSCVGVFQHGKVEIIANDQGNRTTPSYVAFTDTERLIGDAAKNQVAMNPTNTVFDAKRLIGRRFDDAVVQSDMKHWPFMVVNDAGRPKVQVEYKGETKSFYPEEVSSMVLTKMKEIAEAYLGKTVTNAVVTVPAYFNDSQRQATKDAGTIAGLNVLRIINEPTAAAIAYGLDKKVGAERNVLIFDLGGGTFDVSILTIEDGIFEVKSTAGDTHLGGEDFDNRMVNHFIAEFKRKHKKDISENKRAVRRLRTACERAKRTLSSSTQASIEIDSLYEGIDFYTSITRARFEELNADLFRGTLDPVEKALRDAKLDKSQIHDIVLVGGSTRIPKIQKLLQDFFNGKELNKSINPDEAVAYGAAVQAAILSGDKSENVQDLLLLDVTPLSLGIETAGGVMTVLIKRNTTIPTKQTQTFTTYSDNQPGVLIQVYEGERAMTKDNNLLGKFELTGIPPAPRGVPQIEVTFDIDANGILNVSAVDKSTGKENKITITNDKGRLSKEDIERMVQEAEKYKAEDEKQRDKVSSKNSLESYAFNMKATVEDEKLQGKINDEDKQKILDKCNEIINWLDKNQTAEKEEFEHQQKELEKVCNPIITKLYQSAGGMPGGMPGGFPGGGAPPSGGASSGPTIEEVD

Turning to `CCn1c(=O)/c(=C2\Sc3ccccc3N2C)s/c1=C\c1cccc[n+]1CC`, the IC50 in data set [1], in data set [2] and in data set [3] was 1 µM throughout.
In the case of `O=C(NCc1ccccc1F)c1cccs1`, the MIC (in [4]; against Escherichia coli [6]) was 10 µM (≈ 2.35 µg/mL) each time. Besides, in data set [5], the Kd was 70 µM.
As to H-GRPDKPRPYLPRPRPPRPVRI-OH, the Ratio in the data set with Escherichia coli [7] is listed as 4.
As for `Cc1ccc(NC(=O)c2ccc([N+](=O)[O-])o2)cc1`, the MIC in data set [4] was below 12 µM; against Escherichia coli [6], 10 µM (≈ 2.46 µg/mL).
In [8], `CCCC/C=C\CCCCCCCCC(=O)NCc1ccc(C(=O)N[C@H](C(=O)O)[C@@H](C)CC)cc1` returned an IC50 of 36 µM. In [9], the EC50 is above 1500 µg/mL. The MIC against Escherichia coli [10] is 280 µg/mL (≈ 575 µM).
In data set [8], `CCCCCCCCCCCCCCC(=O)NCc1ccc(C(=O)N[C@H](C(=O)O)[C@@H](C)CC)cc1` came in with an IC50 of 5 µM. The MIC with Escherichia coli [10] was 380 µg/mL (≈ 778 µM).
As to `N=C(N)NCCCCCCC(=O)N[C@@H](O)C(=O)NCCCCNCCCN`, the Activity in data set [11] came to 5 µM; with Saccharomyces cerevisiae, 20%; in data set [14] it was 5 µM. The half-life in [12] was 2 h; in data set [13] it was 5 min. For the same molecule, in the data set on L1210, the FC came out at 4.
Regarding `CCCCCCCCCCCCCCCCC(=O)NCc1ccc(C(=O)N[C@H](C(=O)O)[C@@H](C)CC)cc1`, in [8], half-maximal inhibition (IC50) required 1.2 µM. The molecule also came in with an MIC against Escherichia coli [10] of 180 µg/mL (≈ 348 µM).
On to `O=C(Nc1ccc2[nH]ccc2c1)c1cccs1`, for which the MIC (in [4]; with Escherichia coli [6]) was 10 µM (≈ 2.42 µg/mL) throughout. Also, the Kd in data set [5] is 12.7 µM.
`CC1=C(C(=O)OCc2ccccc2)C(c2ccc(C3CCCCC3)cc2)NC(=O)N1CCCCCC(=O)O` (configuration not stated) registered an inhibition in the data set on Escherichia coli [15] of 80%.
On to `COC(=O)C1=C(CCc2ccccc2)NC(=O)NC1c1ccc([N+](=O)[O-])cc1` (configuration not stated), for which it took 4 µM to reach a half-maximal effect in data set [16] (EC50).
